Measured values: patent US11117898B2, “Pyrazolo-heteroaryl derivative, preparation method and medical use thereof” (Jiangsu Hengrui Medicine Co., Ltd., priority 2016, dated 2021)

Tested on: PBMC
Assay: Stimulation of the secretion of IFN-α from peripheral blood mononuclear cells (PBMC)
Type: cell-based, human
Settings: minimal effective concentration: lowest concentration giving cytokine level at least 3 times the minimum detection limit; 24 hours incubation
Method: The ability of the compounds of the present invention to stimulate the secretion of IFN-α from PBMC was determined by the following experimental method:
The compound was diluted with pure DMSO to a maximum concentration of 5 mM, and a total of 9 points were obtained by a 4-fold gradient dilution. 4 μl of the compound were then added to 196 μl of RMPI 1640 medium containing 10% FBS and mixed well. 50 μl of the mixture were taken from each well and added to a new 96-well plate.
All reagents were equilibrated to room temperature. 60 ml of blood and PBS+2% FBS were added to a 250 ml culture flask, gently pipetted, mixed well and diluted. 15 ml of lymphocyte separation solution Ficoll-Paque PREMIUM and then 30 ml of diluted blood were added to a 50 ml PBMC centrifuge tube SepMate™-50. The mixture was centrifuged at 1200 g for 10 minutes at room temperature. The supernatant was taken and then centrifuged at 300 g for 8 minutes. The cells were re-suspended in the RMPI 1640 medium containing 10% FBS and counted, and the number of PBMCs was adjusted to 3.33×10^6 cells/ml. 150 μl of the cell solution were added to the plate added with the compound, and incubated in an incubator at 37° C., in 5.0% CO2 for 24 hours.
The cell culture plate was placed in a centrifuge, and centrifuged at 1200 rpm for 10 minutes at room temperature. 150 μl of the supernatant were taken from each well. The reagents in the human IFN-α kit were first equilibrated to normal temperature. The anti-IFN-α-Eu^3+-Cryptate conjugate and the anti-IFN-α-d2-conjugate were formulated in the dark according to the kit instructions, and both of them were mixed well with the conjugate buffer at a ratio of 1:40. 16 μl of the supernatant obtained by centrifugation were then added to each well. 2 μl of anti-IFN-α-Eu^3+-Cryptate conjugate and anti-IFN-α-d2-conjugate formulated just now were then added to each well. The plate was shaken and mixed well, and incubated in the dark at room temperature for 3 hours.
The PHERAStar was read in the HTRF mode. The lowest compound concentration that stimulated cytokine levels of at least 3 times higher than the minimum detection limit was defined as the minimal effective concentration (MEC) value of the compound in the cytokine stimulation test.
The ability of the compounds of the present invention to stimulate the secretion of IFN-α from PBMC was determined by the above test, and the obtained MEC values are shown in Table 3.

Structure (SMILES) | MEC to stimulate the secretion of IFN-α from PBMC [nM]
CCCCOc1nc(N)c2cnn(Cc3ccc(CN4CCC4)cc3)c2n1 [Example 2, 1-(4-(Azetidin-1-ylmethyl)benzyl)-6-butoxy-1H-pyrazolo[3,4-d]pyrimidin-4-amine] | 23
CCCCOc1nc(N)c2cnn(Cc3ccc(CN4CCCCC4)cc3)c2n1 [Example 3, 6-Butoxy-1-(4-(piperidin-1-ylmethyl)benzyl)-1H-pyrazolo[3,4-d]pyrimidin-4-amine] | 20
CCCCOc1nc(N)c2cnn(Cc3cccc(CN4CCCC4)c3)c2n1 [Example 4, 6-Butoxy-1-(3-(pyrrolidin-1-ylmethyl)benzyl)-1H-pyrazolo[3,4-d]pyrimidin-4-amine] | 100
COCCOc1nc(N)c2cnn(Cc3ccc(CN4CCCC4)cc3)c2n1 [Example 7, 6-(2-Methoxyethoxy)-1-(4-(pyrrolidin-1-ylmethyl)benzyl)-1H-pyrazolo[3,4-d]pyrimidin-4-amine] | 89
